Test system: histamine and its metabolites in the tissue of people with lipedema
Experiment: Metabolomic analysis (IM-MS) of subcutaneous adipose tissue biopsies from lipedema patients treated with sodium cromoglycate
Type: in vivo, human
Settings: for Histamine levels in tissue samples after treatment (in words): three lipedema patients treated for two weeks
Protocol: This experiment study involved patients who were diagnosed with lipedema. The study began with collection of a sample from each subject in the study, and three patients received a treatment regimen consisting of twice daily oral doses of sodium cromoglycate (500 mg) for 15 days, as well as a topical cream containing 4% sodium cromoglycate. The effects of this treatment on the patients' symptoms and mast cell activation were evaluated as part of the study.
Thereafter, metabolomic analysis was performed by mass spectrometry. Specifically, the ion-mobility mass spectrometry (IM-MS) technique combined ion mobility with mass spectrometry, allowing different compounds to be characterized together with a specific m/z ratio. SACI-CIMS was used as ionization technique. Data were acquired through the SANIST platform. Values under the Limit of Quantification (LoQ=1 pg/mg) were considered as 0 pg/mg.
Thereafter, a target histological and metabolomic examination was performed. Specifically, biopsies of subcutaneous adipose tissue were taken from a total of six patients with lipedema and four healthy individuals.

[1] = lipedema tissue of patients treated with sodium cromoglycate (n = 3), 500 mg oral twice daily for 15 days plus 4% topical cream
[2] = lipedema tissue of patients treated with sodium cromoglycate (n = 3), 500 mg oral twice daily for 15 days plus 4% topical cream, values under LoQ (1 pg/mg) given as 0

Structure (SMILES): O=C(O)c1cc(=O)c2c(OCC(O)COc3cccc4oc(C(=O)O)cc(=O)c34)cccc2o1 [sodium cromoglycate, Sodium cromoglycate]
- 1-Methylhystamine tissue level [1]: 13.67 ± 10.02 pg/mg
- Histidine tissue level [1]: 20.67 ± 17.00 pg/mg
- Histamine tissue level [2]: 0 pg/mg
- Imidazole Acetaldehyde tissue level [2]: 0 pg/mg
- Histamine levels in tissue samples after treatment (in words): effectively reduce histamine levels
- Histamine levels in tissue samples after treatment (in words) (listed as disodium cromoglycate): normal levels of histamine

Source: patent publication US20240374555A1, “Mast Cell Stabilizer with Sodium Cromoglycate-based Inhibitor for Preventing Lipedema Progression” (MAGI'S LAB SRL, priority 2023, published 2024)
